# Test results taken from US10238713B2, “Cyclic tetrapeptides and therapeutic applications thereof” (LODZ UNIVERSITY OF TECHNOLOGY, priority 2010, dated 2019).
# Non-standard residues stand in square brackets, D forms with d. Residues, ends and D or L forms follow the SMILES beside them. β3hF = N[C@H](CC(=O)O)Cc1ccccc1
# Columns and labels:
# [1] = system: mice, carrageenan air pouch; assay: Carrageenan air-pouch test (exudate cell number); format: in vivo, mouse; conditions: peptides 100 μg i.p. one hour before carrageenan, 24 h; FIGS. 18A-18B
# Procedure, shortened: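 Mice received peptide i.p. (100 μg, from DMSO/0.9% NaCl) one hour before intra-pouch 1% carrageenan in a 3-day dorsal air pouch; dexamethasone i.p. served as reference. Exudate was aspirated 24 h later after adding 1 ml saline, and cells were counted by hemocytometer (×10^6 per mouse, mean ±SE, 10 mice/group).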
# [2] = system: CBA mice, cellular immune response to ovalbumin; assay: Delayed type hypersensitivity (DTH) test to ovalbumin; format: in vivo; conditions: two 100 μg intraperitoneal doses; FIG. 7
# Procedure: Male CBA mice 8-12 weeks old were delivered by The Institute of Laboratory Medicine, Lodz, Poland. The mice had free access to water and pelleted food. Ovoalbumin was from Sigma and the adjuvants from Difeo.
# Mice were sensitized subcutaneously with 5 μg of ovalbumin (OVA) emulsified in Freund's complete adjuvant in the tail base. After 4 days the mice were challenged with 50 μg of OVA in Freund's incomplete adjuvant in the hind footpads. Following the next 24 hours, the footpad thickness was measured using a caliper. Controls (background response mice) were not sensitized but received the challenging dose of OVA. The compound of formula I-A and the reference compound were administered to mice in two 100 μg intraperitoneal doses, 2 h before and 24 h after the sensitizing dose of antigen.
compound,measurement,setting,value
O=C1C[C@H](Cc2ccccc2)NC(=O)[C@@H]2CCCN2C(=O)[C@@H]2CCCN2C(=O)[C@H](Cc2ccccc2)N1 [I-A] (cyclo(FPP[β3hF])),"air pouch exudate cell number, P vs Control",[1],0.0005
same,effect on delayed-type hypersensitivity reaction to OVA (footpad thickness),[2],inhibited the delayed-type hypersensitivity reaction to OVA
same,suppressive action on DTH compared with reference compounds,[2],stronger than those of CLA and CsA
